The values below come from ChEMBL document CHEMBL1142471, “Antioxidant capacity of human blood plasma and human urine: simultaneous evaluation of the ORAC index and ascorbic acid concentration employing pyrogallol red as probe” (Bioorg Med Chem, 2008).

Holding throughout (assay type): functional
Assay [1] is described as follows: Antioxidant activity assessed as oxygen radical absorbance capacity index value at 5 uM by pyrogallol red protection assay.
Assay [2] is described as follows: Antioxidant activity assessed as oxygen radical absorbance capacity index value by fluorescein protection assay.
Assay [3] can be described thus: Antioxidant activity assessed as oxygen radical absorbance capacity index value by pyrogallol red protection assay.

As for `O=C1O[C@H]([C@@H](O)CO)C(O)=C1O`, the results for the Activity in assay [1] and in assay [2] were 9.7 and 0.95, respectively. `Oc1nc(O)c2nc(O)[nH]c2n1`: the results for the Activity in assay [3] and in assay [2] were 0.02 and 0.72, respectively. With `N[C@@H](CCC(=O)N[C@@H](CS)C(=O)NCC(=O)O)C(=O)O`, in assay [2], the Activity came out at 0.62.
